Measurements from ChEMBL document CHEMBL4177717, “7-Methylguanosine monophosphate analogues with 5'-(1,2,3-triazoyl) moiety: Synthesis and evaluation as the inhibitors of cNIIIB nucleotidase” (Bioorg Med Chem, 2018).
Active and inactive are the calls of the source. The rule behind the calls is not given here.

T1: 7-methylguanosine phosphate-specific 5'-nucleotidase (Homo sapiens) (UniProt Q969T7)
T1 sequence (whole entry): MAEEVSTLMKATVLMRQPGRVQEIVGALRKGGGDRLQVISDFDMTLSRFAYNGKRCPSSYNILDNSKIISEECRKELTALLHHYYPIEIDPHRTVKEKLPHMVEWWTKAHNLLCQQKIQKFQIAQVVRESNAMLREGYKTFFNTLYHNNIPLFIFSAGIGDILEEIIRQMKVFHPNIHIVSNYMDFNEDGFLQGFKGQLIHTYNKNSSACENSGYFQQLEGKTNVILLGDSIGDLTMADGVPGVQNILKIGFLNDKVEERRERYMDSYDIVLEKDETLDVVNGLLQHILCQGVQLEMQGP

T2: m7GpppX diphosphatase (Homo sapiens) (UniProt Q96C86)
T2 sequence (whole entry): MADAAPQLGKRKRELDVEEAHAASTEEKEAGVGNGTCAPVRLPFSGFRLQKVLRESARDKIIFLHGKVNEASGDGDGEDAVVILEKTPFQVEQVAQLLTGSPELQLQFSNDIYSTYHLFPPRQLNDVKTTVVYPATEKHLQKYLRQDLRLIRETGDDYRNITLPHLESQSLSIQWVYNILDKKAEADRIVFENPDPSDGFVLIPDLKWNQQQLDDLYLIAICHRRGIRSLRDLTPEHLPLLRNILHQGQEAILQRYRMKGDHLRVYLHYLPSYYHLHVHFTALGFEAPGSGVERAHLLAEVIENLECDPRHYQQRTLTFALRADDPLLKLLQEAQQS

T3: m7GpppX diphosphatase (Homo sapiens, UniProt Q96C86)
T3 sequence (Q96C86 whole entry): T2 sequence (whole entry)

T4: 7-methylguanosine phosphate-specific 5'-nucleotidase (Homo sapiens, UniProt Q969T7)
T4 sequence (Q969T7 whole entry): T1 sequence (whole entry)

B1: 7-methylguanosine phosphate-specific 5'-nucleotidase (Homo sapiens), Q969T7 (protein)
chain: T1 sequence (whole entry)

Columns and labels:
[1] = Chemical stability of the compound in pH >8 solution at 100 uM after 24 hrs by RP-HPLC analysis; format: physicochemical
[2] = Chemical stability of the compound in pH 6 to 8 PBS at 100 uM after 24 hrs by RP-HPLC analysis; format: physicochemical; details: buffer, pH 6, 24 h
[3] = biological target: T1, 7-methylguanosine phosphate-specific 5'-nucleotidase (Homo sapiens); assay: Activation of recombinant His6/SUMO-tagged human cN3B (1 to 300 residues) expressed in Escherichia coli BL21(DE3) RIL assessed as increase in dephosphorylation of m7GMP substrate at 100 uM after 45 mins by malachite green dye based assay
[4] = biological target: T1, 7-methylguanosine phosphate-specific 5'-nucleotidase (Homo sapiens); assay: Inhibition of recombinant His6/SUMO-tagged human cN3B (1 to 300 residues) expressed in Escherichia coli BL21(DE3) RIL assessed as reduction in dephosphorylation of m7GMP substrate at 200 uM after 45 mins by HPLC method relative to control
[5] = biological target: T1, 7-methylguanosine phosphate-specific 5'-nucleotidase (Homo sapiens); assay: Substrate activity at recombinant His6/SUMO-tagged human cN3B (1 to 300 residues) expressed in Escherichia coli BL21(DE3) RIL assessed as compound dephosphorylation at 100 uM up to 150 mins by HPLC method
[6] = biological target: T1, 7-methylguanosine phosphate-specific 5'-nucleotidase (Homo sapiens); assay: Activation of recombinant His6/SUMO-tagged human cN3B (1 to 300 residues) expressed in Escherichia coli BL21(DE3) RIL assessed as increase in dephosphorylation of m7GMP substrate at 200 uM after 45 mins by HPLC method
[7] = biological target: T1, 7-methylguanosine phosphate-specific 5'-nucleotidase (Homo sapiens); assay: Inhibition of recombinant His6/SUMO-tagged human cN3B (1 to 300 residues) expressed in Escherichia coli BL21(DE3) RIL assessed as reduction in dephosphorylation of m7GMP substrate at 200 uM after 45 mins by malachite green dye based assay relative to control
[8] = biological target: T2, m7GpppX diphosphatase (Homo sapiens); assay: Inhibition of human DCPS using m7GMPF assessed as reduction in conversion of m7GpppG to GDP at 200 uM after 45 mins in presence of human cN3B by HPLC method
[9] = biological target: T3, m7GpppX diphosphatase; assay: Inhibition of human DCPS using m7GMPF as substrate after 30 mins by nucleoside 5'-fluorophosphate probe based HTS assay
[10] = biological target: T4, 7-methylguanosine phosphate-specific 5'-nucleotidase; assay: Inhibition of recombinant His6/SUMO-tagged human cN3B (1 to 300 residues) expressed in Escherichia coli BL21(DE3) RIL assessed as reduction in dephosphorylation of m7GMP substrate after 45 mins by malachite green dye based assay
[11] = biological target: Eukaryotic translation initiation factor 4E (Homo sapiens, UniProt P06730); assay: Inhibition of eIF4E (unknown origin)
[12] = biological target: T1, 7-methylguanosine phosphate-specific 5'-nucleotidase (Homo sapiens); assay: Inhibition of recombinant His6/SUMO-tagged human cN3B (1 to 300 residues) expressed in Escherichia coli BL21(DE3) RIL assessed as reduction in conversion of m7GMP to m7Guo at 200 uM after 45 mins in presence of human DCPS by HPLC method
[13] = biological target: T4, 7-methylguanosine phosphate-specific 5'-nucleotidase; assay: Inhibition of recombinant His6/SUMO-tagged human cN3B (1 to 300 residues) expressed in Escherichia coli BL21(DE3) RIL assessed as reduction in dephosphorylation of m7GMP substrate after 45 mins by HPLC method
[14] = species: Homo sapiens; assay: Selectivity ratio of IC50 for human DCPS to IC50 for recombinant His6/SUMO-tagged human cN3B (1 to 300 residues) expressed in Escherichia coli BL21(DE3) RIL
[15] = biological target: Eukaryotic translation initiation factor 4E (Mus musculus, UniProt P63073); assay: Inhibition of fluorescein-labeled m7GDPC4H5 binding to mouse eIF4E (28 to 217 residues) by MST method; details: read-out: Kd(app)
[16] = substrate: C[n+]1cn([C@@H]2O[C@H](Cn3cc(OCP(=O)([O-])O)nn3)[C@@H](O)[C@H]2O)c2nc(N)[nH]c(=O)c21; assay: Substrate activity at recombinant His6/SUMO-tagged human cN3B (1 to 300 residues) expressed in Escherichia coli BL21(DE3) RIL assessed as compound dephosphorylation by Kcat up to 30 mins by malachite green dye based assay
[17] = substrate: C[n+]1cn([C@@H]2O[C@H](Cn3cc(OCP(=O)([O-])O)nn3)[C@@H](O)[C@H]2O)c2nc(N)[nH]c(=O)c21; assay: Substrate activity at recombinant His6/SUMO-tagged human cN3B (1 to 300 residues) expressed in Escherichia coli BL21(DE3) RIL assessed as compound dephosphorylation up to 30 mins by malachite green dye based assay
[18] = substrate: C[n+]1cn([C@@H]2O[C@H](Cn3cc(OCP(=O)([O-])O)nn3)[C@@H](O)[C@H]2O)c2nc(N)[nH]c(=O)c21; assay: Substrate activity at recombinant His6/SUMO-tagged human cN3B (1 to 300 residues) expressed in Escherichia coli BL21(DE3) RIL assessed as compound dephosphorylation by Vmax up to 30 mins by malachite green dye based assay
[19] = substrate: C[n+]1cn([C@@H]2O[C@H](Cn3cc(OCP(=O)([O-])O)nn3)[C@@H](O)[C@H]2O)c2nc(N)[nH]c(=O)c21; assay: Substrate activity at recombinant His6/SUMO-tagged human cN3B (1 to 300 residues) expressed in Escherichia coli BL21(DE3) RIL assessed as compound dephosphorylation by measuring ratio of Kcat to Km up to 30 mins by malachite green dye based assay

Eukaryotic translation initiation factor 4E (Mus musculus, UniProt P63073), sequence (P63073 whole entry, the tested form may be a part): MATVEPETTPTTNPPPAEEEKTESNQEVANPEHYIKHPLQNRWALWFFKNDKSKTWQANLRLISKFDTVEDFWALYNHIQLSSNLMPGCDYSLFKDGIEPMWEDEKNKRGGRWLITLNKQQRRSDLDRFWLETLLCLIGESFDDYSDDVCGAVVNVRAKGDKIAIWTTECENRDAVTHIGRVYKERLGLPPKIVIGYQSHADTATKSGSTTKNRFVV
Eukaryotic translation initiation factor 4E (Homo sapiens, UniProt P06730), sequence (P06730 whole entry, the tested form may be a part): as the sequence (P63073 whole entry, the tested form may be a part) above, with T12P, P16T, A17T, D174E counted along it

| Molecule | Stability [1] | Stability [2] | Activity [3] | inhibition [4] | Activity [5] | inhibition [7] | IC50 [9] | further results |
| --- | --- | --- | --- | --- | --- | --- | --- | --- |
| C[n+]1cn([C@@H]2O[C@H](Cn3cc(OCP(=O)([O-])O)nn3)[C@@H](O)[C@H]2O)c2nc(N)[nH]c(=O)c21 | Unstable | Stable | Active | inactive | Active |  |  |  |
| C[n+]1cn([C@@H]2O[C@H](Cn3cc(CCP(=O)([O-])O)nn3)[C@@H](O)[C@H]2O)c2nc(N)[nH]c(=O)c21 | Unstable | Stable | inactive | inactive | inactive | inactive |  | Activity [6]: inactive |
| C[n+]1cn([C@@H]2O[C@H](Cn3cc(P(=O)([O-])O)nn3)[C@@H](O)[C@H]2O)c2nc(N)[nH]c(=O)c21 | Unstable | Stable |  | 67% | inactive | 51% | 244 µM | inhibition [8]: inactive; IC50 [10]: 128 µM; Ki [11]: 382 µM; inhibition [12]: Active; IC50 [13]: 87.8 µM; Ratio IC50 [14]: 3; Kd [15]: 5.9 µM |
| C[n+]1cn([C@@H]2O[C@H](COP(=O)([O-])O)[C@@H](O)[C@H]2O)c2nc(N)[nH]c(=O)c21 |  |  |  |  | Active |  | 42.2 µM |  |
| C[n+]1cn([C@@H]2O[C@H](COP(=O)([O-])OP(=O)(O)O)[C@@H](O)[C@H]2O)c2nc(N)[nH]c(=O)c21 |  |  |  |  |  |  | 1.8 µM |  |
| C[n+]1cn([C@@H]2O[C@H](Cn3cc(CP(=O)([O-])O)nn3)[C@@H](O)[C@H]2O)c2nc(N)[nH]c(=O)c21 | Unstable | Stable | inactive | inactive | inactive | inactive |  | Activity [6]: inactive |
| B1 |  |  |  |  |  |  |  | kcat [16]: 1.16 s⁻¹; Km [17]: 82 µM; Vmax [18]: 1.6 µmol/min/mg; kcat/Km [19]: 11000 M⁻¹ s⁻¹ |
